The text below walks through data of BindingDB's records for doi:10.1021/acschembio.6b00250 (Chinese Academy of Sciences, 2016).

As usually defined, the IC50 is the concentration needed to halve the response being measured. A lower IC50 goes with greater potency in that assay.

Holding throughout (experiment): Invitrogen SelectScreen Enzymatic Assay
Experiment [1] deals with Phosphatidylinositol 3-kinase catalytic subunit type 3 (Homo sapiens, UniProt Q8NEB9). The method, then:
(§1) The enzymatic assay was performed using the LifeTechnology SelectScreen.

Experiment [2] concerns the target Phosphatidylinositol 3-kinase regulatory subunit alpha/4,5-bisphosphate 3-kinase catalytic subunit alpha isoform (Homo sapiens, UniProt P42336). How it is done:
as §1

In experiment [3] the target is Phosphatidylinositol 3-kinase regulatory subunit alpha/4,5-bisphosphate 3-kinase catalytic subunit delta isoform (Homo sapiens, UniProt O00329). The method, then: as §1
Experiment [4] addresses Phosphatidylinositol 4,5-bisphosphate 3-kinase catalytic subunit gamma isoform (Homo sapiens, UniProt P48736). How it is done:
as §1

For experiment [5], the target named is Phosphatidylinositol 4-kinase alpha (Homo sapiens, UniProt P42356). The method, then:
as §1

The target of experiment [6] is Phosphatidylinositol 4-kinase beta (Homo sapiens, UniProt Q9UBF8). The method, then: as §1
Experiment [7] concerns the target Phosphatidylinositol 4-phosphate 3-kinase C2 domain-containing subunit alpha (Homo sapiens, UniProt O00443). The method, then: as §1
Experiment [8] has as its target Phosphatidylinositol 4-phosphate 3-kinase C2 domain-containing subunit beta (Homo sapiens, UniProt O00750). The method, then: as §1
In experiment [9] the target is Serine/threonine-protein kinase 16 (Homo sapiens, UniProt O75716). The method, then: as §1

Molecules are shown by their SMILES.

Chain of Phosphatidylinositol 3-kinase catalytic subunit type 3 (Q8NEB9 whole entry): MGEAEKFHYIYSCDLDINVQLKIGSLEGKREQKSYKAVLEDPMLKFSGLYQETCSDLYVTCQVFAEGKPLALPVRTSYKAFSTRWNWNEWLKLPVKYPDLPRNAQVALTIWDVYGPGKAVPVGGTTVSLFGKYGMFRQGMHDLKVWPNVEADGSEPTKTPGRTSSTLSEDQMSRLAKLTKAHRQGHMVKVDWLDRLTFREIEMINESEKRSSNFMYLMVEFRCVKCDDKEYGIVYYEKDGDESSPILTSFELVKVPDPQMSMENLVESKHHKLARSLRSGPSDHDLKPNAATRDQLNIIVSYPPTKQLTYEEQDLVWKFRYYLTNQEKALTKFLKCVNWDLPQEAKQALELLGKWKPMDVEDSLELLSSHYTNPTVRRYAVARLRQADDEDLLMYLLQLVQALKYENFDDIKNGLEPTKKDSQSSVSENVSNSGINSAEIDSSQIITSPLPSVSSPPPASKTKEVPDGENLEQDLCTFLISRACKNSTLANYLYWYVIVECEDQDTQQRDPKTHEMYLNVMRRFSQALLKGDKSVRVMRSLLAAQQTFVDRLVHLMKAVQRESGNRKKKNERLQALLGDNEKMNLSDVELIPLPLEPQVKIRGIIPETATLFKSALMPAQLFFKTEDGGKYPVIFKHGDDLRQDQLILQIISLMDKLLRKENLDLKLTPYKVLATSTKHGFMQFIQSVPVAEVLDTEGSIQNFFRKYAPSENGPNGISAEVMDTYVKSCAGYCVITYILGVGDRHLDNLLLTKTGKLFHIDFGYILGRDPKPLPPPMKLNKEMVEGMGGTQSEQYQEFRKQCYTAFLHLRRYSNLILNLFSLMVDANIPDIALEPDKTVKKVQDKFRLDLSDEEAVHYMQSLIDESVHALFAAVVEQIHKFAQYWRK
Chain of Phosphatidylinositol 4-phosphate 3-kinase C2 domain-containing subunit alpha (O00443 whole entry, the tested form may be a part): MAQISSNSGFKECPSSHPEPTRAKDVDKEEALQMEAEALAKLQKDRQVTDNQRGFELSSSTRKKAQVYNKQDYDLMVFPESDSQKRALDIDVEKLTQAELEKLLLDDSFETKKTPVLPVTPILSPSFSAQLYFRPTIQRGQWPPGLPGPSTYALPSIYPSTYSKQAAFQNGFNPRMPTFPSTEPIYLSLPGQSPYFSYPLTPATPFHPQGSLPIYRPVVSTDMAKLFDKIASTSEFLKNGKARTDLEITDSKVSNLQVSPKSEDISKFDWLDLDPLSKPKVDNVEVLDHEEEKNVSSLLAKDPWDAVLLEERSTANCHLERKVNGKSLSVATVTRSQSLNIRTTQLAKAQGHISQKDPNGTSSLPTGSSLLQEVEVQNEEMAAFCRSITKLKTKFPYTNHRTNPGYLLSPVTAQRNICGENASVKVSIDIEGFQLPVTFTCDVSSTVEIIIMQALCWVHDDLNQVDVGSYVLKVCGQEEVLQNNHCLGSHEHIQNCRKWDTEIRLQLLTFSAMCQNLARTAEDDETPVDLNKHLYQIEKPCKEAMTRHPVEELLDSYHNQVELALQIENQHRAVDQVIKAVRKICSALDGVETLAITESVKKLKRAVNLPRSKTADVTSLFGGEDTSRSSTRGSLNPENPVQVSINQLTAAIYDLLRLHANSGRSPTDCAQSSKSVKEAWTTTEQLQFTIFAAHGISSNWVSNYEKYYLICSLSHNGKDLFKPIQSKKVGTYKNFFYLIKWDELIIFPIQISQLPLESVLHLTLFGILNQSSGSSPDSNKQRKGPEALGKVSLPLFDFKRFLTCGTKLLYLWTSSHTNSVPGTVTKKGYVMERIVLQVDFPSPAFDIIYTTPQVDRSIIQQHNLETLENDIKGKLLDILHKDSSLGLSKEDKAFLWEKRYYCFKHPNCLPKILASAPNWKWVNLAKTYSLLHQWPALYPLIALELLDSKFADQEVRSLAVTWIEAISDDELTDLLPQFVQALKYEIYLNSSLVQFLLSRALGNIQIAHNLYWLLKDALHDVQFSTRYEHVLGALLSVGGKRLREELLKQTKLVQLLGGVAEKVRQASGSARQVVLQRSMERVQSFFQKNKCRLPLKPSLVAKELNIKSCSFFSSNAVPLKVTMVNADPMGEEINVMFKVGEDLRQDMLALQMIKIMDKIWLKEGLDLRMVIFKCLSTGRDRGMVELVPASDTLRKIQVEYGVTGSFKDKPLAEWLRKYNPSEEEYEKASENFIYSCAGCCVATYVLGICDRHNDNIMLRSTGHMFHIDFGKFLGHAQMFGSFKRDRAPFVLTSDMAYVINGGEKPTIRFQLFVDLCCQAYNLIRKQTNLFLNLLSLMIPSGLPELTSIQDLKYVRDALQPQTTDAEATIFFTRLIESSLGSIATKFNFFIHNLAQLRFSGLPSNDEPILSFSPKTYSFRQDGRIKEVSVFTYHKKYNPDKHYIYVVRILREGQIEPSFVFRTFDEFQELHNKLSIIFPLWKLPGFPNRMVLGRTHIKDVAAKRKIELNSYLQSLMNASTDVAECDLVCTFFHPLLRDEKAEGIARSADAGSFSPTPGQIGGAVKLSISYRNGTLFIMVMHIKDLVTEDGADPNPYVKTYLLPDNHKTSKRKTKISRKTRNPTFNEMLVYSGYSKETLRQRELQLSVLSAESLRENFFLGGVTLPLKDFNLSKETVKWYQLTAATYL
Chain of Phosphatidylinositol 4,5-bisphosphate 3-kinase catalytic subunit gamma isoform (P48736 whole entry, canonical isoform): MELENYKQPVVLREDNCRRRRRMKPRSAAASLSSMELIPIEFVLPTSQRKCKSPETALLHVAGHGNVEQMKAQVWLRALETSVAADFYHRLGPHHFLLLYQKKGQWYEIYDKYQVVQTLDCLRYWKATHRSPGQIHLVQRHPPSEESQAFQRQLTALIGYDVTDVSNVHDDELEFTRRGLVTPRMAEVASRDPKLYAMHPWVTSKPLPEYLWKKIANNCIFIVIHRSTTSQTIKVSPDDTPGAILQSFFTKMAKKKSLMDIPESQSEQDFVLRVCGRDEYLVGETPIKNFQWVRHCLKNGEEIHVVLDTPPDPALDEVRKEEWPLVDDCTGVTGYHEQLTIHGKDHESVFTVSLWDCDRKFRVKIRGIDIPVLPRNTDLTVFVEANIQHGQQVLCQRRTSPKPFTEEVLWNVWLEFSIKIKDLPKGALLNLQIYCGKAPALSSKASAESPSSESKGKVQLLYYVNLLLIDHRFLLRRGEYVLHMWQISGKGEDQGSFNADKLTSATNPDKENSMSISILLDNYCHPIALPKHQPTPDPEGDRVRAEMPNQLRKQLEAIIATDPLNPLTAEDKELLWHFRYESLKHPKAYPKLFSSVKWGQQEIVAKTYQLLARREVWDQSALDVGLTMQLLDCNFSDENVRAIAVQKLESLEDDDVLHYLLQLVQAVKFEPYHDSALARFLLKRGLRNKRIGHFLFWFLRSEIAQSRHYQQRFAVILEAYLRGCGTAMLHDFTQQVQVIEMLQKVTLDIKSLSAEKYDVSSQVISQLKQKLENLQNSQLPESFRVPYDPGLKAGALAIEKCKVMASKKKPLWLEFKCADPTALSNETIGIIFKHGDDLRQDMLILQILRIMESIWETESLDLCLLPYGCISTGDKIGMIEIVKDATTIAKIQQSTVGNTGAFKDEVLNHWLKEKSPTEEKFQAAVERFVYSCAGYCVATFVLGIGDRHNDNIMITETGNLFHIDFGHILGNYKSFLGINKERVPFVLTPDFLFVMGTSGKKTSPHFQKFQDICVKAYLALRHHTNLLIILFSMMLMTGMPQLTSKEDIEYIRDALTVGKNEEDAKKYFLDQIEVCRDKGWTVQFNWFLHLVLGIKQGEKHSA
Chain of Serine/threonine-protein kinase 16 (O75716 whole entry): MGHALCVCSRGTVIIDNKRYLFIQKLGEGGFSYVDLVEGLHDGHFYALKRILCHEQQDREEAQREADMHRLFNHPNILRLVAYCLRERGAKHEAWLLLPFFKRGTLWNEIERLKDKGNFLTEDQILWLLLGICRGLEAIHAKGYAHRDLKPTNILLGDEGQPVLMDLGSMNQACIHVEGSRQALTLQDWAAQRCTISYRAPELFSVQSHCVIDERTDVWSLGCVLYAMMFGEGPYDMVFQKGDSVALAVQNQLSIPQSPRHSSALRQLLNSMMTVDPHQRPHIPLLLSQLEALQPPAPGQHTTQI
Chain of Phosphatidylinositol 4-kinase beta (Q9UBF8 whole entry, the tested form may be a part): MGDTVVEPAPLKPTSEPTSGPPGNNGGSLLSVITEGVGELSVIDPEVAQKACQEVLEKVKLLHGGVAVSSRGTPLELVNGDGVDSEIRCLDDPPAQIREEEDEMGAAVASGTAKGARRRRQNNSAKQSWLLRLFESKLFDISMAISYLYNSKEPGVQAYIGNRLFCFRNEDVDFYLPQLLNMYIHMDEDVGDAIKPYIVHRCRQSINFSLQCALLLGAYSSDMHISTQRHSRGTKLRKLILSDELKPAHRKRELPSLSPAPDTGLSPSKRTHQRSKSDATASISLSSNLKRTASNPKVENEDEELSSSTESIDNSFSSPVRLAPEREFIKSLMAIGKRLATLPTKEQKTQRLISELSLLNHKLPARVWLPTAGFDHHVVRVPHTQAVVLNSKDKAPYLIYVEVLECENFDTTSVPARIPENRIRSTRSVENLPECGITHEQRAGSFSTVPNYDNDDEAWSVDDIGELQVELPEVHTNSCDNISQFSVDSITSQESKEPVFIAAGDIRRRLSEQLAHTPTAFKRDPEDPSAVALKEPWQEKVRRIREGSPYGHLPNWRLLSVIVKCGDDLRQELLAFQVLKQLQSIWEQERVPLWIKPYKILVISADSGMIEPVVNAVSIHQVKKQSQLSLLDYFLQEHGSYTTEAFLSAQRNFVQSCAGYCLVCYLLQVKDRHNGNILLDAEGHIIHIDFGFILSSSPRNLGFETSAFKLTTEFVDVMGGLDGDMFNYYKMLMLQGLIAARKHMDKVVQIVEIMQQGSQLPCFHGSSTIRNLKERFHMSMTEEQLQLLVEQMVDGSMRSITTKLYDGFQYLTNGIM

As to `O=c1ccc2cnc3[nH]ccc3c2n1-c1ccc(F)c(O)c1` [STK16-IN-1], the IC50 was 7940 nM in experiment [1]; 1070 nM in experiment [2]; 856 nM in experiment [3]; 867 nM in [4]; over 10000 nM in [5]; over 10000 nM in [6]. The 50% inhibitory concentration (IC50) in [7] is 4860 nM; in experiment [8], 9330 nM; in experiment [9], 295 nM.
